Laboratory results reported in paper PMC3183052, “Immunoprotectivity of HLA-A2 CTL Peptides Derived from Respiratory Syncytial Virus Fusion Protein in HLA-A2 Transgenic Mouse” (PLoS ONE, 2011).

How the values were obtained:
[1] = system: splenocytes from HLA-A*0201 transgenic C57BL/6 mice; assay: IFN-γ ELISPOT of splenocytes restimulated with peptide; assay type: cell-based, mouse
How it was run: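 HLA-A*0201 transgenic C57BL/6 mice primed and boosted intranasally 20 days apart with 1×10^7 pfu rAd-F0 or 1×10^4 live RSV B1; splenocytes taken 10 days post-boost. Splenocytes restimulated 48 h at 37°C with 2 µg individual RSV F 9-mer peptides; spots counted, expressed per 5×10^5 splenocytes.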

splenocytic CD8+ T cells = assay: CFSE proliferation of CD8+ T cells after in vitro peptide restimulation; assay type: cell-based, mouse; details: mice immunized s.c. twice with 50 µg peptide in IFA; splenocytes restimulated with 10 µg/mL peptide for 8 days
Experimental: To screen the immunodominance of epitopic peptide in the induction of RSV-F specific Th1/Th2 expression, HLA-A*0201 transgenic C57BL/6 mice were anesthetized with isoflurane and immunized with 1×10^7 pfu/50 µL of rAd-F0 or rAd-LacZ or 1×10^4 live RSV B1 via the intranasal (i.n.) route. Twenty days later, the mice were given booster immunization i.n. with the same dose. After 10 days of boost, mice were sacrificed and splenocytes were isolated for the cytokine ELISPOT assay. […] Mice body weight was monitored daily.
The splenocytes were isolated, labeled with 5-(6)-carboxyfluorescein diacetate succinimidyl ester (CFSE) (Sigma-Aldrich) and stimulated in vitro with 10 µg/mL of the synthetic peptides for 4 or 8 days. Proliferation of splenocytic CD4^+ and CD8^+ T cells was analyzed by flow cytometry (BD FACSCalibur) using PE-Cy5-labeled specific antibody against CD4 (eBioscience) or CD8 (eBioscience), respectively. Cell division index (CDI), a ratio of CFSE-diluted CD4^+ or CD8^+ T cells stimulated by peptide to CFSE-diluted unstimulated CD4^+ or CD8^+ T cells, was calculated as shown below; [drawing 1] […]
Figure 2 Epitope-specific CD4^+ and CD8^+ T-cell activation in peptide-immunized HLA-A*0201 transgenic mice. […] Proliferation of CD4^+ (A) or CD8^+ (B) lymphocytes in response to the different CD8 epitopes was analyzed by flow cytometry using anti-CD4 or CD8 antibodies conjugated with PE-Cy5. […]

## YMLTNSELL [peptide 14, HLA-A*0201-restricted 9-mer synthetic peptide from F protein of RSV-B1 strain]
[1]; splenocytes of HLA-Tg B6 mice primed and boosted i.n. with 10^4 pfu RSV-B1, restimulated with 2 µg peptide, representative of two experiments, five mice per group
  IFN-γ ELISPOT, RSV: 97 cytokine-secreting cells per 5×10^5 splenocytes
[1]; splenocytes of HLA-Tg B6 mice primed and boosted i.n. with 10^7 pfu rAd-F0, restimulated with 2 µg peptide, representative of two experiments, five mice per group
  IFN-γ ELISPOT, rAd-F0: 200 cytokine-secreting cells per 5×10^5 splenocytes
[1]; splenocytes of rAd-F0- or RSV B1-primed and boosted HLA-Tg B6 mice, high = over 100 spots, moderate = over 50 spots
  IFN-γ level in restimulated splenocytes (ELISPOT, text grading): over 100 spots
Splenocytic CD8+ T cells
  proliferation of CD8+ T cells (cell division index): ~3 fold
